“Also recorded” adds a separate entry of the source.
Assays:
[1] = test system: CSM14.1 cells; test: Tunicamycin-induced cell death of CSM14.1 cells; assay type: cell-based, rat
Experimental: CSM 14.1 cells were plated at a density of 3×10^3 cells/well in 96-well plates and incubated overnight. Cells were pre-incubated with 25 μM of each compound or 100 μM salubrinal for two hours, followed by […] tunicamycin treatment. 72 hours later, cell death rates were measured by flow cytometry analysis. Annexin V-negative population was considered as survivors. In FIG. 13, the white column represents 0.5% DMSO control showing 24% of survival, and the gray column 100 μM salubrinal. Black columns are data from each compound (25 μM) (compound numbers refer to the compounds in Table 9).
(§1) For the experiments shown in FIG. 18, undifferentiated CSM 14.1 cells were plated at 3,000 cells per well in 96-well plates (for the ATP assay) or at 1×10^4 cells per well in 24-well plates (for flow cytometry). The next day, cells were treated with DMSO (0.5%) or hit compounds 25 μM of a compound with 0.5% DMSO final concentration) for two hours, followed by treatment with various cell death-inducing reagents, including 15 μM Thapsigargin (TG) for 24 hrs, 10 μg/mL tunicamycin (TU) for 72 hrs, 2.5 μM staurosporine (STS) for 24 hrs, 50 μM VP16 for 48 hrs, or 30 ng/mL TNF plus 10 μg/mL cyclohexamide (CHX) for 24 hrs. Cellular ATP content was measured for staurosporine samples and TNF/CHX samples, normalizing data relative to cells treated with DMSO alone (the control) and presenting as a percentage of control. For measuring cell death resulting from treatment with tunicamycin and VP16, flow cytometry was used. All assays were performed in triplicate (mean ±SD).

[2] = test system: CSM14.1 cells; test: Pathway selectivity: cell death induced by VP16, TNF plus cycloheximide or staurosporine in CSM14.1 cells; assay type: cell-based, rat; settings: 25 μM, ATP content where stated
Experimental: The selectivity of compounds with respect to suppression of cell death induced by ER stress was determined by treating undifferentiated CSM14.1 cells with a variety of agents that induce apoptosis via the ER stress pathway (thapsigargin, tunicamycin), the mitochondrial pathway (VP16) or the death receptor pathway (TNF+cycloheximide [CHX]). Of the 26 hit compounds tested, 19 reduced cell death induced by thapsigargin and tunicamycin but not VP16 or TNF/CHX.
as §1

[3] = test system: ATF6; test: ATF6 proteolytic processing (immunoblotting); assay type: cell-based, rat; settings: immunoblotting to detect cleaved form; listed as CID-2878746
Text: After confirming the pathway selectivity of compounds, additional downstream assays can be performed to map the specific signal transduction pathway inhibited by the compounds. In this regard, various antibody reagents are commercially available for assessing the status of the three major pathways known to be activated by ER stress: (1) PERK, (2) Ire1, and (3) ATF6 (Xu et al., J. Clinical Invest., 115:2656-2664, 2005). Immunoblotting experiments can be performed to assess the expression or phosphorylation (using phospho-specific antibodies) of marker proteins in these pathways. […] Cell lysates were prepared and analyzed by SDS-PAGE/immunoblotting using antibodies specific for phospho-c-Jun, phospho-eIF2α, phospho-p38 MAPK, and tubulin (a loading control). […] After two hrs, cell lysates were prepared, normalized for protein content, and either analyzed by SDS-PAGE/immunoblotting using anti-p38-MAPK pan-reactive antibody or phospho-specific antibody with ECL-based detection, followed by densitometry analysis of x-ray films, normalizing phosphor-p38 MAPK relative to total p38 MAPK, or analyzed using a meso-scale instrument from MSD and a procedure in which total p38 MAPK is captured on plates, and the relative amounts of phosphorylated protein were determined using phospho-specific antibody (MSD catalog #K15112D1). […]

[4] = test system: Jnk-1 and Jnk-2; test: c-Jun activation by purified Jnk-1 and Jnk-2, in vitro kinase assay; assay type: biochemical; settings: 50 μM compound
Experimental: C-Jun and p38 MAPK work downstream of the Ire1 pathway (see FIG. 21), we tested whether one of our hit compounds (6239507) inhibits autophosphorylation of any of kinases in this Ire1-ASK1-JNK/p38 MAPK pathway. […] An Ire1 autophosphorylation assay was performed. Immunoprecipitated Ire1 was incubated with DMSO (2%), 50 μM compound 6239507, or the positive control staurosporine (20 μM; STS) for 20 minutes at 30° C. followed by chilling on ice. 0.5 μCi of ^32P-γ-ATP was added to each tube and incubated at 30° C. for the indicated times. Kinase reactions were finished by adding sample buffer. Incorporation values of ^32P-γ-ATP were evaluated by a scintillation counter. An ASK1-MKK6-p38 coupled assay was also performed. Immunoprecipitated ASK1 was mixed with 1 μg MKK6 (Millipore) and 1 μg p38 MAPK (Sigma). Kinases were incubated with 2% DMSO, 50 μM compound 6239507, or 20 μM staurosporine (STS) in one tube for 20 minutes at 30° C. followed by ice chilling. 0.5 μCi of ^32P-γ-ATP was added to each tube and incubated at 30° C. for the indicated times. Kinase reactions were finished by adding sample buffer. Incorporation values of ^32P-γ-ATP were evaluated by a scintillation counter. C-Jun activation by purified Jnk-1 and Jnk-2 (Millipore) was confirmed with the same procedures.

Structure (SMILES) | Inhibition of tunicamycin-induced cell death ([1]; CSM14.1 cells, annexin V flow cytometry where stated) | Cytoprotective activity, stimulus Tunicamycin (Result) ([1]; readout Annexin, CSM 14.1, compound ≦25 μM) | IC50 ([1]; undifferentiated CSM14.1, ATP content assay, read-out: IC50, inhibition of tunicamycin-induced cell death) [µM] | Inhibition of cell death induced by TNF-α plus cycloheximide [2] | Inhibition of cell death induced by VP-16 [2] | Inhibition of cell death induced by staurosporine [2] | ATF6 proteolytic processing [3] | JNK's activity on c-Jun [4]
CCN(CC)c1ccc(C2Nc3ccccc3NC3=C2C(=O)CC(c2ccccc2)C3)cc1 (centres unmarked) [Compound 5962123, 6-(4-diethylaminophenyl)-9-phenyl-5,6,8,9,10,11-hexahydrobenzo[c][1,5]benzodiazepin-7-one] | inhibits; also recorded: confirmed | + (+indicates ≧50% rescue of cell viability relative to untreated cells not exposed to thapsigargin at compound concentration of ≦25 μM) | 10 | does not inhibit; also recorded: not active | does not inhibit; also recorded: not active | does not inhibit; also recorded: not active | not inhibited | 
COc1ccc(C2CC(=O)C3=C(C2)Nc2ccccc2NC3c2cccc(Oc3ccccc3)c2)cc1OC (centres unmarked) [Compound 6239507] |  |  |  |  |  |  |  | does not modulate
